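Where inhibition never reached the appropriate level, the endpoint shown equals the highest concentration tested. Otherwise, values were interpolated linearly from a five-concentration, 48-hour dose response in 96-well plates. Abbreviation: GI50, concentration required for 50% inhibition of growth.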 Activity calls are given as the source filed them. Cut-off read from the data, not from the text of the source: active = GI50 up to about 1.1 µM and inactive = higher.
Tests used:
Assay in all cases: growth of human tumour cells (NCI), 48 h
PC-3 = system: PC-3
SF-539 = system: SF-539
COLO 205 = system: COLO 205
OVCAR-3 = system: OVCAR-3
NCI-H226 = system: NCI-H226
LOX IMVI = system: LOX IMVI
RPMI-8226 = system: RPMI-8226
DMS-114 = system: DMS-114
SW-620 = system: SW-620
UO-31 = system: UO-31
OVCAR-5 = system: OVCAR-5
SK-MEL-2 = system: SK-MEL-2
HCT-116 = system: HCT-116
KM12 = system: KM12
A549 = system: A549
OVCAR-4 = system: OVCAR-4
A498 = system: A498
SNB-75 = system: SNB-75
K562 = system: K562
T47D = system: T47D

In the case of `COc1ccc(/C=C2/C(=O)N(C(=O)c3ccccc3O)N=C2C)cc1OC`, the GI50 (PC-3) is reported as 2.37 µM (inactive), the GI50 (SF-539) is reported as 0.241 µM (active) and the GI50 (COLO 205) is reported as 26.7 µM (inactive). For the same molecule, the GI50 (OVCAR-3) was 0.374 µM (active), the GI50 (NCI-H226) was 0.637 µM (active) and the GI50 (LOX IMVI) was 0.603 µM (active). For the same molecule, the GI50 (RPMI-8226) was 1.72 µM (inactive), the GI50 (DMS-114) was 0.301 µM (active) and the GI50 (SW-620) was 3.27 µM (inactive). For the same molecule, the GI50 (UO-31) was 0.202 µM (active), the GI50 (OVCAR-5) was 3.9 µM (inactive) and the GI50 (SK-MEL-2) was 0.605 µM (active). The GI50 (HCT-116) was 0.275 µM (active), the GI50 (KM12) was 0.516 µM (active) and the GI50 (A549) was 0.33 µM (active). For the same molecule, the GI50 (OVCAR-4) was 2.44 µM (inactive) and the GI50 (A498) was 0.121 µM (active).
In the case of `C=CCN(N=O)C(=O)NCCCCC(NC(C)=O)C(=O)NCc1ccccc1` (centres undefined), the GI50 (SF-539) is reported as > 100 µM (inactive), the GI50 (COLO 205) is reported as > 100 µM (inactive) and the GI50 (OVCAR-3) is reported as > 100 µM (inactive). The GI50 (SNB-75) was > 100 µM (inactive), the GI50 (K562) was > 100 µM (inactive) and the GI50 (NCI-H226) was 42.5 µM (inactive). For the same molecule, the GI50 (LOX IMVI) was > 100 µM (inactive), the GI50 (RPMI-8226) was > 100 µM (inactive) and the GI50 (DMS-114) was > 100 µM (inactive). For the same molecule, the GI50 (SW-620) was > 100 µM (inactive), the GI50 (UO-31) was > 100 µM (inactive) and the GI50 (OVCAR-5) was > 100 µM (inactive). The GI50 (SK-MEL-2) was 72.6 µM (inactive), the GI50 (KM12) was > 100 µM (inactive) and the GI50 (A549) was > 100 µM (inactive). For the same molecule, the GI50 (OVCAR-4) was > 100 µM (inactive) and the GI50 (A498) was > 100 µM (inactive).
`C=C(CN(C)C)C(=O)c1cc(C)ccc1C` was tested, and the GI50 (PC-3) was 14.1 µM (inactive), the GI50 (SF-539) was 8.91 µM (inactive) and the GI50 (COLO 205) was 1.58 µM (inactive). The GI50 (OVCAR-3) was 5.33 µM (inactive), the GI50 (SNB-75) was 17.2 µM (inactive) and the GI50 (K562) was 0.791 µM (active). For the same molecule, the GI50 (NCI-H226) was 13.2 µM (inactive), the GI50 (LOX IMVI) was 4.84 µM (inactive) and the GI50 (RPMI-8226) was 1.42 µM (inactive). For the same molecule, the GI50 (T47D) was 4.11 µM (inactive), the GI50 (DMS-114) was 5.02 µM (inactive) and the GI50 (SW-620) was 1.82 µM (inactive). The GI50 (UO-31) was 6.87 µM (inactive), the GI50 (OVCAR-5) was 14.8 µM (inactive) and the GI50 (SK-MEL-2) was 16.9 µM (inactive). For the same molecule, the GI50 (HCT-116) was 4.7 µM (inactive), the GI50 (KM12) was 18.6 µM (inactive) and the GI50 (A549) was 19.7 µM (inactive). For the same molecule, the GI50 (OVCAR-4) was 9.75 µM (inactive) and the GI50 (A498) was 23.6 µM (inactive).
With `Cc1[nH]c2cc([N+](=O)[O-])ccc2c1[N+](=O)[O-]` the GI50 (SF-539) was 18.8 µM (inactive), the GI50 (COLO 205) was 13.7 µM (inactive) and the GI50 (OVCAR-3) was 25.1 µM (inactive). The GI50 (SNB-75) was 19 µM (inactive), the GI50 (K562) was 22.2 µM (inactive) and the GI50 (NCI-H226) was 14.2 µM (inactive). The GI50 (LOX IMVI) was 24.6 µM (inactive), the GI50 (RPMI-8226) was 10.5 µM (inactive) and the GI50 (DMS-114) was 9.93 µM (inactive). For the same molecule, the GI50 (SW-620) was 25.2 µM (inactive), the GI50 (UO-31) was 7.96 µM (inactive) and the GI50 (OVCAR-5) was 27.2 µM (inactive). For the same molecule, the GI50 (SK-MEL-2) was 14.1 µM (inactive), the GI50 (KM12) was 21.3 µM (inactive) and the GI50 (A549) was 17.1 µM (inactive). For the same molecule, the GI50 (OVCAR-4) was 14.1 µM (inactive) and the GI50 (A498) was 17.3 µM (inactive).
For `CCCCN[C@H]1C2C3CC4C5CC(C42)C1(C)C53` (some centres undefined), the GI50 (SF-539) was > 100 µM (inactive), the GI50 (COLO 205) was > 100 µM (inactive) and the GI50 (OVCAR-3) was > 100 µM (inactive). For the same molecule, the GI50 (SNB-75) was > 100 µM (inactive), the GI50 (K562) was > 100 µM (inactive) and the GI50 (NCI-H226) was > 100 µM (inactive). For the same molecule, the GI50 (LOX IMVI) was > 100 µM (inactive), the GI50 (RPMI-8226) was > 100 µM (inactive) and the GI50 (DMS-114) was > 100 µM (inactive). For the same molecule, the GI50 (SW-620) was > 100 µM (inactive), the GI50 (UO-31) was > 100 µM (inactive) and the GI50 (OVCAR-5) was > 100 µM (inactive). The GI50 (SK-MEL-2) was > 100 µM (inactive), the GI50 (HCT-116) was > 100 µM (inactive) and the GI50 (KM12) was > 100 µM (inactive). The GI50 (A549) was > 100 µM (inactive), the GI50 (OVCAR-4) was > 100 µM (inactive) and the GI50 (A498) was > 100 µM (inactive).

Reference: ChEMBL document CHEMBL1201862, “PubChem BioAssay data set” (2004)
